Measurements reported in patent US12370168B2 (scPharmaceuticals Inc., priority 2013, dated 2025).
Read-outs that look alike come from different tables or passages of the source.

Legend:
[1] = 8 mg/mL; for Osmolality / [Furosemide] / pH: three months
[2] = Example 4 short term storage stability of 8 mg/mL furosemide Tris-buffered solutions; details: over 48 hours
Experimental: Upon preparation, samples were filtered through 0.2 μm nylon filters.
The osmolality values of 50 μL aliquots of each sample were measured by freezing point depression.
Aliquots of each sample were stored at each condition and subsequently filtered and analyzed after 24 and 48 hours of storage.

[3] = 25 mM Tris, nominal pH 7.0, 70° C.
[4] = 25 mM Tris, nominal pH 7.4, 70° C.
[5] = 25 mM Tris, nominal pH 8.0, 70° C.
[6] = 50 mM Tris, nominal pH 7.0, 70° C.
[7] = 50 mM Tris, nominal pH 7.4, 70° C.
[8] = 50 mM Tris, nominal pH 8.0, 70° C.
[9] = 100 mM Tris, nominal pH 7.0, 70° C.
[10] = 100 mM Tris, nominal pH 7.4, 70° C.
[11] = 100 mM Tris, nominal pH 8.0, 70° C.
[12] = 25, 50, 100 mM Tris, pH 7.0, 7.4, 8.0, 70° C., 3 months
[13] = Tris buffer pH 7.0, 7.5, 8.0, −20° C., 2° C.-8° C., 25° C., 40° C.

For `NS(=O)(=O)c1cc(C(=O)O)c(NCc2ccco2)cc1Cl` [Furosemide, 4-chloro-2-(furan-2-ylmethylamino)-5-sulfamoyl-benzoic acid], the Osmolality [1, 3] was 308 mOsm/kg H2O, the “[Furosemide]” value [1, 3] was less than 0.002 mg/mL and the pH [1, 3] was 4.44. For the same compound, the Osmolality [1, 4] was 299 mOsm/kg H2O, the “[Furosemide]” value [1, 4] was less than 0.002 mg/mL and the pH [1, 4] was 4.57. The Osmolality [1, 5] was 297 mOsm/kg H2O, the “[Furosemide]” value [1, 5] was 1.16 mg/mL and the pH [1, 5] was 5.26. For the same compound, the Osmolality [1, 6] was 305 mOsm/kg H2O, the “[Furosemide]” value [1, 6] was less than 0.002 mg/mL and the pH [1, 6] was 4.50. The Osmolality [1, 7] was 311 mOsm/kg H2O, the “[Furosemide]” value [1, 7] was less than 0.002 mg/mL and the pH [1, 7] was 4.73. For the same compound, the Osmolality [1, 8] was 311 mOsm/kg H2O, the “[Furosemide]” value [1, 8] was 3.60 mg/mL and the pH [1, 8] was 7.30. The Osmolality [1, 9] was 306 mOsm/kg H2O, the “[Furosemide]” value [1, 9] was less than 0.002 mg/mL and the pH [1, 9] was 4.54. For the same compound, the Osmolality [1, 10] was 312 mOsm/kg H2O, the “[Furosemide]” value [1, 10] was 0.58 mg/mL and the pH [1, 10] was 5.68. For the same compound, the Osmolality [1, 11] was 303 mOsm/kg H2O, the “[Furosemide]” value [1, 11] was 3.67 mg/mL and the pH [1, 11] was 7.56. The “change in furosemide concentration” value [1, 12] was “decreased significantly”, the change in osmolality [1, 12] was “slightly increased” and the “change in pH” value [1, 12] was “decreased significantly”. The color of samples [1, 12] was “dark brown”, the “change in furosemide concentration” value [2, 13] was “No decrease” and the “pH deviation from the initial value” [2, 13] was no more than 0.1 units. For the same compound, the osmolality over time ([2]; Tris buffer) was “consistent”.
